Values joined by “and” are separate entries in the source; they are usually repeats but may differ in a detail not shown here. Equal values may be shown once.

Assay [1] addresses SthK full-length channels. The note with it: read-out: affinity; SthK full-length channels in amphipol; cited from earlier work.
In assay [2] the test system is SthK CNBD. In words: AFM single molecule force spectroscopy. The class given is binding. Conditions: for Ka: individual binding sites, Ka=Ka(2D)mr, mr=0.03 binding-sites/nm^2; for Ka(2D): probabilistic binding frequency model fit, contact time 0.02-1.00 s.
In assay [3] the test system is SthK. The note with it: cited from earlier work; for open probability Po: depolarized membrane potentials (+100 mV).
Assay [4] relates to SthK CNBD. Nature of the assay: joint Bell-Evans fitting of AFM-SMFS and MDS dynamic force spectra. Conditions: Bell-Evans fit, AFM-SMFS + MDS joint data; 0.02 s bond formation.
Assay [5] has as its target T1, His6-C-linker-CNBD (Winmispira thermophila, UniProt G0GA88).
T1 sequence (G0GA88 226-423): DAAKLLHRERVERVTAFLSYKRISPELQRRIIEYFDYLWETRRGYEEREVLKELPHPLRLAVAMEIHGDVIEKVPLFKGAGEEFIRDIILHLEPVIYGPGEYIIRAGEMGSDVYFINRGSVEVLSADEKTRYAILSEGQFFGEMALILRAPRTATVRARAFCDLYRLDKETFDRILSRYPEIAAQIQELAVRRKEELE
Nature of the assay: microscale thermophoresis. Conditions: 50 nM labeled His6-C-linker-CNBD; cN 0.00305-100 μM. Format: binding.

In assay [6] the target is His6-C-linker-CNBD construct of SthK (residues 226-423). Nature of the assay: SEC. Background: In gel filtration, larger molecules generally elute earlier.
The target is the same in assay [7]. In words: AFM imaging.
Where [8] appears, read: interchange between state 1 and state 2 bonds.

Regarding `Nc1ncnc2c1ncn2[C@@H]1O[C@@H]2COP(=O)(O)O[C@H]2[C@H]1O` [cAMP, cyclic adenosine monophosphate], the Kd in assay [1] is 600 nM. Further, in assay [2], the “bond formation time needed to fully populate state 2” value is recorded as ~ 0.2 s, the Ka came out at 0.31 ± 0.04 and the “Ka(2D)” value was 10.4 ± 1.3 nm^2. In addition, in assay [2] (setting [8]), the “k1 (forward rate constant for entering the deeper binding mode)” value is 5.4 ± 0.7 1/s and 5.4±0.7 * 1/s; the “k−1 (reverse rate constant for entering the deeper binding mode)” value was 4.8 ± 0.8 1/s and 4.8±0.8 * 1/s. Besides, in assay [3], the “open probability Po” value is ~ 0.4.

For orientation: koff means a measure of how fast the partners let go of each other. For `Nc1nc2c(ncn2[C@@H]2O[C@@H]3COP(=O)(O)O[C@H]3[C@H]2O)c(=O)[nH]1` [cGMP, cyclic guanosine monophosphate], the koff is 13.9 ± 6.9 s⁻¹ in assay [4] and 7.7 ± 1.5 s⁻¹ in assay [2] (Bell-Evans fit, AFM-SMFS only, 0.02 s (20 ms) bond formation time). For the same compound, the values for the Kd in assay [1] and in assay [5] were 2700 nM and 3300 ± 1800 nM, respectively. Also, in assay [2], the Ka was found to be 0.15 ± 0.02. In addition, the “kon(2D)” value in assay [2] (kon(2D)=Ka(2D)koff) amounted to 37.8 ± 9.7 nm^2/s. This compound registered a kon in assay [2] (molecular on rate, kon=Kakoff) of 1.2 ± 0.3 s⁻¹. In addition, in assay [2], the “Ka(2D)” value was 4.9 ± 0.5 nm^2. Moreover, in assay [3], the “open probability Po” value is given as ~ 0.001. The “fold lower open probability than cAMP” value in assay [3] (single channel recordings) is recorded as ~ 1000 fold.

For orientation: stoichiometry N means the number of molecules, sites or subunits per partner or assembly. With “His6-C-linker-CNBD construct of SthK (residues 226-423) (domain or fragment)”, the stoichiometry N in assay [6] and in assay [7] was 4 throughout.

The values above are taken from paper PMC10194703 (Nature structural & molecular biology, 2023).
